Here are results for twelve compounds from patent publication US8324390B2, “Tetrazole-substituted anthranilamides as pesticides” (Bayer CropScience AG, priority 2008, dated 2012).

Data set [1] concerns larvae of the mustard beetle (Phaedon cochleariae). Nature of the data set: Phaedon test (PHAECO spray treatment). Conditions: Phaedon cochleariae, in Brassica rapa, foliar, read-out: effect in % (beetle larvae killed).
Data set [2] is described as follows: log P determination by HPLC (EEC Directive 79/831 Annex V.A8). In kind it is physicochemical. Here is the method: The measurements were carried out using an Agilent 1100 LC system with a 50*4.6 Zorbax Eclipse C18 1.8 μm column (oven temperature 55° C., flow rate 2.0 ml/min).
The following mobile phases were used:
Mobile phase A: acetonitrile+1000 μl of formic acid/l
Mobile phase B: Millipore water+900 μl of formic acid/l

Data set [3] relates to green peach aphid (Myzus persicae). Nature of the data set: Myzus test (MYZUPE spray treatment). Conditions: Myzus persicae, foliar, read-out: effect in % (aphids killed). The class given is in vivo. From the text: Solvent: 78 parts by weight of acetone
(§1) Solvent: 78.0 parts by weight of acetone

Data set [4] has as its system caterpillars of the armyworm (Spodoptera frugiperda). Nature of the data set: Spodoptera frugiperda test (SPODFR spray treatment). The class given is in vivo. Conditions: Spodoptera frugiperda, foliar, read-out: effect in % (caterpillars killed).
Description: as §1

Setting [5] is: reversed-phase HPLC, Zorbax Eclipse C18 column, determined by HPLC according to EEC Directive 79/831 Annex V.A8, read-out: log P.
[6] abbreviates: application rate 100 g/ha, Chinese cabbage leaf discs.
The mark [7] stands for this setting: application rate 100 g/ha, maize leaf discs.
The mark [8] stands for this setting: reversed-phase HPLC, Zorbax Eclipse C18 column, by HPLC according to EEC Directive 79/831 Annex V.A8, read-out: log P.

Where two headings read alike, the source gives them in different places.

As to `Cc1cc(C#N)cc(C(=O)NC(C)(C)C)c1NC(=O)c1cc(Cn2nnnc2C(F)(F)F)nn1-c1ncccc1Br` [Example 483], the pest or weed control at 100 g/ha in data set [1], in data set [3] (setting [6]) and in data set [4] (setting [7]) was not below 80% throughout. Further, the chromatographic logP in data set [2] (setting [5]) worked out at 3.07.

As to `CNC(=O)c1cc(Cl)cc(Cl)c1NC(=O)c1cc(Cn2nnnc2C(F)(F)C(F)(F)F)nn1-c1ncccc1Cl` [Example 447], the pest or weed control at 100 g/ha in data set [1], in data set [3] (in Brassica rapa) and in data set [4] (in Zea mays) was not below 80% throughout. This compound also showed a chromatographic logP in data set [2] (log P) of 3.03.

As to `Cc1cc(C#N)cc(C(=O)NC(C)(C)C)c1NC(=O)c1cc(Cn2nnnc2C(F)F)nn1-c1ncccc1Cl` [Example 464], the pest or weed control at 100 g/ha in data set [1], in data set [3] (in Brassica rapa) and in data set [4] (in Zea mays) was not below 80% each time. The compound also displayed a chromatographic logP in data set [2] (log P) of 2.59.

Turning to `CSC[C@H](C)NC(=O)c1cc(Cl)cc(C)c1NC(=O)c1cc(Cn2nnc(C(F)(F)F)n2)nn1-c1ncccc1Cl` [Example 41], the pest or weed control at 100 g/ha in data set [1], in data set [3] (in Brassica rapa) and in data set [4] (in Zea mays) was not below 80% in each case. Also, the chromatographic logP in data set [2] (log P) was 3.68.

Turning to `CNC(=O)c1cc(C#N)cc(C)c1NC(=O)c1cc(Cn2nnc(C(F)(F)F)n2)nn1-c1ncccc1Br` [Example 314], the pest or weed control at 100 g/ha in data set [1], in data set [3] (setting [6]) and in data set [4] (setting [7]) was not below 80% each time. In data set [2] (setting [8]), the chromatographic logP was determined as 3.58.

Regarding `Cc1cc(C#N)cc(C(=O)NCC#N)c1NC(=O)c1cc(Cn2nnc(C(F)(F)F)n2)nn1-c1ncccc1Cl` [Example 18], the pest or weed control at 100 g/ha in data set [1], in data set [3] (in Brassica rapa) and in data set [4] (in Zea mays) was not below 80% each time. The compound also showed a chromatographic logP in data set [2] (log P) of 2.61.

For the compound `CNC(=O)c1cc(Cl)cc(C)c1NC(=O)c1cc(Cn2nnc(C(F)(F)F)n2)nn1-c1ccccc1Br` [Example 345], the pest or weed control at 100 g/ha in data set [1], in data set [3] (setting [6]) and in data set [4] (setting [7]) was not below 80% throughout. The chromatographic logP in data set [2] (setting [8]) was 3.5.

On to `Cc1cc(I)cc(C(=O)NC2CCC2)c1NC(=O)c1cc(Cn2nnc(C(F)F)n2)nn1-c1ncccc1Cl` [Example 280], for which the pest or weed control at 100 g/ha in data set [1], in data set [3] (in Brassica rapa) and in data set [4] (in Zea mays) was not below 80% throughout. Moreover, the chromatographic logP in data set [2] (log P) came to 3.34.

On to `CNC(=O)c1cc(C#N)cc(C)c1NC(=O)c1cc(Cn2nnnc2C(F)(F)F)nn1-c1ncccc1Br` [Example 477], for which the pest or weed control at 100 g/ha in data set [1], in data set [3] (setting [6]) and in data set [4] (setting [7]) was not below 80% throughout. In data set [2] (setting [5]), the chromatographic logP turned out to be 2.47.

On to `N#CCNC(=O)c1cc(Cl)cc(Cl)c1NC(=O)c1cc(Cn2nnc(C(F)(F)C(F)(F)F)n2)nn1-c1ncccc1Cl` [Example 158], for which the pest or weed control at 100 g/ha in data set [1], in data set [3] (in Brassica rapa) and in data set [4] (in Zea mays) was not below 80% in each case. In data set [2] (log P), this compound yielded a chromatographic logP of 3.32.

On to `Cc1cc(I)cc(C(N)=O)c1NC(=O)c1cc(Cn2nnnc2C(F)(F)F)nn1-c1ncccc1C(F)(F)F` [Example 455], for which the pest or weed control at 100 g/ha in data set [1], in data set [3] (setting [6]) and in data set [4] (setting [7]) was not below 80% in each case. Besides, the chromatographic logP in data set [2] (setting [5]) came to 2.83.

For `Cc1cc(Cl)cc(C(=O)NC(C)C)c1NC(=O)c1cc(Cn2nnnc2C(F)(F)F)nn1-c1ncccc1Br` [Example 485], the pest or weed control at 100 g/ha in data set [1], in data set [3] (setting [6]) and in data set [4] (setting [7]) was not below 80% in each case. Also, in data set [2] (setting [5]), the chromatographic logP amounted to 3.14.
